The assay deals with T1, rat NaPi-2b (Rattus norvegicus, UniProt Q9JJ09).
T1 construct: expressed in transfected cells; host or cells: Xenopus oocytes injected with cRNA
T1 sequence (Q9JJ09 1-695): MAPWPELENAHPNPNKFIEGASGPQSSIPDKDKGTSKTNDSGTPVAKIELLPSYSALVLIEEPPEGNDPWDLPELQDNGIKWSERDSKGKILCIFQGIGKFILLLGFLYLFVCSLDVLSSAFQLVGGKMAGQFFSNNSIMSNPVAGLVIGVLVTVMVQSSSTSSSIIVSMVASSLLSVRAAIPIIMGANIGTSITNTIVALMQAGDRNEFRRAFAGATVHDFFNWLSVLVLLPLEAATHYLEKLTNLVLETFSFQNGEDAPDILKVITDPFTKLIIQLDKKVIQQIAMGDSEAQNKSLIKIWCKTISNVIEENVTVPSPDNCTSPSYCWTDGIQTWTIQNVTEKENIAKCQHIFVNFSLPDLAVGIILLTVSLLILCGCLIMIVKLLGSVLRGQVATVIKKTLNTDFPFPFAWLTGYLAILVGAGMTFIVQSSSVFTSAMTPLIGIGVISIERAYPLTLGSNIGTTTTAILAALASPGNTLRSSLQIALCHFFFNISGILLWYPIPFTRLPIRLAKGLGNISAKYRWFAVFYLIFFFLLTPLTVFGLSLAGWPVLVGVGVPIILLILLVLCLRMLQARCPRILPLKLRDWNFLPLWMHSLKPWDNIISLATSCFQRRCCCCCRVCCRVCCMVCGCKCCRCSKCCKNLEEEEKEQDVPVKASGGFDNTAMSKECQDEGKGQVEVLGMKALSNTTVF
Briefly: Sodium-dependent phosphate uptake of Xenopus oocytes which expressed NaPi-2b (32P). In kind it is cell-based. Particulars: Xenopus oocytes expressing rat NaPi-2b, 32P radioactive phosphorus; read-out: IC50 (phosphate uptake inhibitory activity). The method, boiled down: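 Steps: rat NaPi-2b cDNA cloned from small intestine; cRNA made and injected into oocytes; 2-day expression; 32P phosphate uptake with compound; % inhibition at 300/100 μM taken from one curve.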

The values below come from US8134015B2, “Compound inhibiting in vivo phosphorous transport and medicine containing the same” (Kyowa Hakko Kirin Co., Ltd., priority 2003, dated 2012).

A value given as a limit tells only on which side of the number the result lay.

Take `Cc1ccc(/C=N/NC(=O)c2cc(Br)ccc2NC(=O)c2ccncc2)cc1C` [Compound 170, N-[4-Bromo-2-(3,4-dimethyl-benzylidene-hydrazinocarbonyl)-phenyl]-isonicotinamide]: the half-inhibitory concentration (IC50) was found to be 5.34 µM.
The figure for `O=C(Nc1ccc(Br)cc1C(=O)N/N=C/c1ccc(Cl)c(C(F)(F)F)c1)c1ccncc1` [Compound 171, N-[4-Bromo-2-(4-chloro-3-trifluoromethyl-benzylidene-hydrazinocarbonyl)-phenyl]-isonicotinamide] is 5.12 µM.
`O=C(Nc1ccc(Br)cc1C(=O)N/N=C/c1cccc(F)c1)c1cccnc1` [Compound 172, N-[4-Bromo-2-(3-fluoro-benzylidene-hydrazinocarbonyl)-phenyl]-nicotinamide]: the IC50 is 2.74 µM.
The figure for `O=C(Nc1ccc(Br)cc1C(=O)N/N=C/c1ccc(F)cc1)c1cccnc1` [Compound 173, N-[4-Bromo-2-(4-fluoro-benzylidene-hydrazinocarbonyl)-phenyl]-nicotinamide] is 7.4 µM.
The figure for `Cc1cccc(/C=N/NC(=O)c2cc(Br)ccc2NC(=O)c2cccnc2)c1` [Compound 174, N-[4-Bromo-2-(3-methyl-benzylidene-hydrazinocarbonyl)-phenyl]-nicotinamide] is 12.5 µM; for `Cc1ccc(/C=N/NC(=O)c2cc(Br)ccc2NC(=O)c2cccnc2)cc1` [Compound 175, N-[4-Bromo-2-(4-methyl-benzylidene-hydrazinocarbonyl)-phenyl]-nicotinamide] it is 3.57 µM; for `Cc1ccc(/C=N/NC(=O)c2cc(Br)ccc2NC(=O)c2cccnc2)cc1C` [Compound 176, N-[4-Bromo-2-(3,4-dimethyl-benzylidene-hydrazinocarbonyl)-phenyl]-nicotinamide] it is 4.1 µM.
The figure for `O=C(Nc1ccc(Br)cc1C(=O)N/N=C/c1ccc(Cl)c(C(F)(F)F)c1)c1cccnc1` [Compound 177, N-[4-Bromo-2-(4-chloro-3-trifluoromethyl-benzylidene-hydrazinocarbonyl)-phenyl]-nicotinamide] is 26 µM; for `CCc1ccc(C(=O)Nc2ccc(Br)cc2C(=O)N/N=C/c2cccc(F)c2)cc1` [Compound 178, N-[4-Bromo-2-(3-fluoro-benzylidene-hydrazinocarbonyl)-phenyl]-4-ethyl-benzamide] it is 7.54 µM; for `CCc1ccc(C(=O)Nc2ccc(Br)cc2C(=O)N/N=C/c2ccc(F)cc2)cc1` [Compound 179, N-[4-Bromo-2-(4-fluoro-benzylidene-hydrazinocarbonyl)-phenyl]-4-ethyl-benzamide] it is 18.7 µM.
Regarding `CCc1ccc(C(=O)Nc2ccc(Br)cc2C(=O)N/N=C/c2cccc(C)c2)cc1` [Compound 180, N-[4-Bromo-2-(3-methyl-benzylidene-hydrazinocarbonyl)-phenyl]-4-ethyl-benzamide], the 50% inhibitory concentration (IC50) is < 3 µM.
The figure for `CCc1ccc(C(=O)Nc2ccc(Br)cc2C(=O)N/N=C/c2ccc(C)cc2)cc1` [Compound 181, N-[4-Bromo-2-(4-methyl-benzylidene-hydrazinocarbonyl)-phenyl]-4-ethyl-benzamide] is 3.16 µM; for `CCc1ccc(C(=O)Nc2ccc(Br)cc2C(=O)N/N=C/c2ccc(C)c(C)c2)cc1` [Compound 182, N-[4-Bromo-2-(3,4-dimethyl-benzylidene-hydrazinocarbonyl)-phenyl]-4-ethyl-benzamide] it is 10.2 µM; for `CCc1ccc(C(=O)Nc2ccc(Br)cc2C(=O)N/N=C/c2ccc(Cl)c(C(F)(F)F)c2)cc1` [Compound 183, N-[4-Bromo-2-(4-chloro-3-trifluoromethyl-benzylidene-hydrazinocarbonyl)-phenyl]-4-ethyl-benzamide] it is < 3 µM.
The figure for `O=C(Nc1ccc(Cl)cc1C(=O)N/N=C/c1cccc(F)c1)c1cccnc1` [Compound 184, N-[4-Chloro-2-(3-fluoro-benzylidene-hydrazinocarbonyl)-phenyl]-nicotinamide] is 4.01 µM; for `O=C(Nc1ccc(Cl)cc1C(=O)N/N=C/c1ccc(F)cc1)c1cccnc1` [Compound 185, N-[4-Chloro-2-(4-fluoro-benzylidene-hydrazinocarbonyl)-phenyl]-nicotinamide] it is 2.02 µM; for `Cc1cccc(/C=N/NC(=O)c2cc(Cl)ccc2NC(=O)c2cccnc2)c1` [Compound 186, N-[4-Chloro-2-(3-methyl-benzylidene-hydrazinocarbonyl)-phenyl]-nicotinamide] it is 10.1 µM.
The figure for `Cc1ccc(/C=N/NC(=O)c2cc(Cl)ccc2NC(=O)c2cccnc2)cc1` [Compound 187, N-[4-Chloro-2-(4-methyl-benzylidene-hydrazinocarbonyl)-phenyl]-nicotinamide] is 7.87 µM; for `Cc1ccc(/C=N/NC(=O)c2cc(Cl)ccc2NC(=O)c2cccnc2)cc1C` [Compound 188, N-[4-Chloro-2-(3,4-dimethyl-benzylidene-hydrazinocarbonyl)-phenyl]-nicotinamide] it is 19.4 µM.
For `O=C(Nc1ccc(Cl)cc1C(=O)N/N=C/c1ccc(Cl)c(C(F)(F)F)c1)c1cccnc1` [Compound 189, N-[4-Chloro-2-(4-chloro-3-trifluoromethyl-benzylidene-hydrazinocarbonyl)-phenyl]-nicotinamide], the IC50 was 1.47 µM.
The figure for `O=C(Nc1ccc(Cl)cc1C(=O)N/N=C/c1ccc(F)cc1)c1ccncc1` [Compound 190, N-[4-Chloro-2-(4-fluoro-benzylidene-hydrazinocarbonyl)-phenyl]-isonicotinamide] is 20.3 µM; for `Cc1cccc(/C=N/NC(=O)c2cc(Cl)ccc2NC(=O)c2ccncc2)c1` [Compound 191, N-[4-Chloro-2-(3-methyl-benzylidene-hydrazinocarbonyl)-phenyl]-isonicotinamide] it is 12.1 µM.
The figure for `Cc1ccc(/C=N/NC(=O)c2cc(Cl)ccc2NC(=O)c2ccncc2)cc1` [Compound 192, N-[4-Chloro-2-(4-methyl-benzylidene-hydrazinocarbonyl)-phenyl]-isonicotinamide] is 23.1 µM; for `Cc1ccc(/C=N/NC(=O)c2cc(Cl)ccc2NC(=O)c2ccncc2)cc1C` [Compound 193, N-[4-Chloro-2-(3,4-dimethyl-benzylidene-hydrazinocarbonyl)-phenyl]-isonicotinamide] it is 4.21 µM.
The figure for `O=C(Nc1ccc(Cl)cc1C(=O)N/N=C/c1ccc(Cl)c(C(F)(F)F)c1)c1ccncc1` [Compound 194, N-[4-Chloro-2-(4-chloro-3-trifluoromethyl-benzylidene-hydrazinocarbonyl)-phenyl]-isonicotinamide] is 7.36 µM.
For `O=C(Nc1ccc(Br)cc1C(=O)N/N=C/c1cccc(F)c1)c1cccc(CSc2ccncc2)c1` [Compound 195, N-[4-Bromo-2-(3-fluoro-benzylidene-hydrazinocarbonyl)-phenyl]-3-(pyridin-4-ylsulfanylmethyl)-benzamide], the IC50 came to 0.98 µM.
The figure for `O=C(Nc1ccc(Br)cc1C(=O)N/N=C/c1ccc(F)cc1)c1cccc(CSc2ccncc2)c1` [Compound 196, N-[4-Bromo-2-(4-fluoro-benzylidene-hydrazinocarbonyl)-phenyl]-3-(pyridin-4-ylsulfanylmethyl)-benzamide] is 0.61 µM.
The figure for `Cc1cccc(/C=N/NC(=O)c2cc(Br)ccc2NC(=O)c2cccc(CSc3ccncc3)c2)c1` [Compound 197, N-[4-Bromo-2-(3-methyl-benzylidene-hydrazinocarbonyl)-phenyl]-3-(pyridin-4-ylsulfanylmethyl)-benzamide] is 4.87 µM; for `Cc1ccc(/C=N/NC(=O)c2cc(Br)ccc2NC(=O)c2cccc(CSc3ccncc3)c2)cc1` [Compound 198, N-[4-Bromo-2-(4-methyl-benzylidene-hydrazinocarbonyl)-phenyl]-3-(pyridin-4-ylsulfanylmethyl)-benzamide] it is 2.71 µM.
The figure for `Cc1ccc(/C=N/NC(=O)c2cc(Br)ccc2NC(=O)c2cccc(CSc3ccncc3)c2)cc1C` [Compound 199, N-[4-Bromo-2-(3,4-dimethyl-benzylidene-hydrazinocarbonyl)-phenyl]-3-(pyridin-4-ylsulfanylmethyl)-benzamide] is 1.82 µM.
Regarding `O=C(Nc1ccc(Br)cc1C(=O)N/N=C/c1ccc(Cl)c(C(F)(F)F)c1)c1cccc(CSc2ccncc2)c1` [Compound 200, N-[4-Bromo-2-(4-chloro-3-trifluoromethyl-benzylidene-hydrazinocarbonyl)-phenyl]-3-(pyridin-4-ylsulfanylmethyl)-benzamide], the IC50 is 0.39 µM.
Consider `COc1ccc(C(=O)Nc2ccc(Br)cc2C(=O)N/N=C/c2cccn2C)cc1OC` [Compound 201, N-[4-Bromo-2-(1-methyl-1H-pyrrol-2-ylmethylene-hydrazinocarbonyl)-phenyl]-3,4-dimethoxy-benzamide], for which the IC50 turned out to be 11.1 µM.
